# From US20240261272A1, “LPA1 ANTAGONISTS FOR TREATING INTERSTITIAL LUNG DISEASE” (Bristol-Myers Squibb Company, priority 2022, published 2024)
# Key:
# [1] = Phase 1 Part A single ascending dose (SAD) study in healthy participants: safety, blood pressure; format: in vivo, human; design: Mean DBP: unit not given here
# Experimental: (§1) The study was performed in 3 parts in 112 healthy male and female participants, including 24 Japanese participants. Female participants were to be not of childbearing potential. The present study was designed to evaluate the safety and tolerability, PK, and exploratory PD of an oral suspension of Compound A. Parts A and B (Cohort B1 only) enrolled healthy participants and was conducted at a site in The Netherlands and Part B (Cohort B2 to B5) enrolled healthy non-Japanese participants and was conducted at a site in the United Kingdom (UK). Part C enrolled healthy Japanese participants and was conducted at the same site in the UK.
# Part A was an SAD study in a planned number of 6 sequential dose escalation cohorts (3, 10, 30, 100, 150, or 250 mg) of 8 healthy participants (6 active+2 placebo) each, under fasted conditions. Eligible participants in Part A (excluding those in Cohort A7 [food effect (FE)/pH cohort]) received a single administration of study drug (Compound A or placebo) under fasted conditions. In Cohort A1 to Cohort A6, sentinel dosing was employed (1 active+1 placebo, followed after 48 hours by the remaining participants of the cohort [5 active+1 placebo]). […] In addition to the 6 ascending dose cohorts, a cohort of 6 healthy participants (Cohort A7; 6 active, 100 mg Compound A) was included to assess the effect of food and pH on the bioavailability of Compound A in a 3-period, open-label, fixed-sequence, crossover design (FE/pH cohort).
# (§2) Physical examinations, vital sign measurements (including orthostasis testing in Cohort A6, Cohort B3 to B5, and C1 to C3 at selected time points), 12-lead electrocardiogram (ECG), and clinical laboratory evaluations were performed at selected times throughout the study. In addition, Holter monitoring was performed for the first 24 hours post dose on Day 1 in Part A (not in FE/pH cohort), and also for the first 24 hours post dose on Day 1 and Day 14 in Parts B and C. Participants were closely monitored for adverse events (AEs). Blood samples were collected for up to 14 days (follow-up visit) after (last) study drug administration for PK analysis. In addition, blood and urine were collected for exploratory biomarker assessments and for biobanking of samples for potential analyses. Urine was collected for potential PK analysis for up to 96 hours after a single dose of Compound A or placebo was administered in the SAD part, and for up to 24 hours after the first (morning) dose of study drug on Day 1 and for up to 24 hours after the last (morning) dose of study drug on Day 14 in the MAD parts.
# [2] = Phase 1 Part C MAD study in healthy Japanese participants: blood pressure; format: in vivo, human; conditions: for Maximum of Mean (±SD) Reduction in DBP from Baseline (Baseline): MAD Japanese Part C
# Experimental: as §1
# Part C was a MAD study in 3 sequential dose escalation cohorts (30 mg BID, 60 mg BID, and 90 mg BID) of 8 healthy Japanese participants (6 active+2 placebo) each. Eligible participants in Cohorts C1 to C3 received study drug (Compound A or placebo) administered orally for 14 days.
# as §2
smiles,measurement,setting,value
"CCCN(C)C(=O)OCc1c(-c2ccc(O[C@H]3CCC[C@H](C(=O)O)C3)c(C)n2)nnn1C [Compound A, (1S,3S)-3-((2-methyl-6-(1-methyl-5-(((methyl(propyl)carbamoyl)-oxy)methyl)-1H-1,2,3-triazol-4-yl)pyridin-3-yl)oxy)cyclohexane-1-carboxylic acid]",Mean DBP,"[1]; 100 mg Fasted + Famotidine, D 1 2 h",67.2
same,Mean DBP,"[1]; 100 mg Fasted + Famotidine, D 1 4 h",65.3
same,Mean DBP,"[1]; 100 mg Fasted + Famotidine, D 1 8 h",63.2
same,Mean DBP,"[1]; 100 mg Fasted + Famotidine, D 2 24 h",71.7
same,Mean DBP,"[1]; 100 mg Fasted, D 1 2 h",67.2
same,Mean DBP,"[1]; 100 mg Fasted, D 1 4 h",64.2
same,Mean DBP,"[1]; 100 mg Fasted, D 1 8 h",63.0
same,Mean DBP,"[1]; 100 mg Fasted, D 2 24 h",69.3
same,Mean DBP,"[1]; 100 mg Fed, D 1 2 h",57.2
same,Mean DBP,"[1]; 100 mg Fed, D 1 4 h",58.2
same,Mean DBP,"[1]; 100 mg Fed, D 1 8 h",58.8
same,Mean DBP,"[1]; 100 mg Fed, D 2 24 h",69.3
same,Mean DBP,"[1]; SAD 3 mg, D 1 2 h",68.3
same,Mean DBP,"[1]; SAD 3 mg, D 1 4 h",69.5
same,Mean DBP,"[1]; SAD 3 mg, D 1 8 h",68.0
same,Mean DBP,"[1]; SAD 3 mg, D 2 24 h",68.7
same,Mean DBP,"[1]; SAD 10 mg, D 1 2 h",67.7
same,Mean DBP,"[1]; SAD 10 mg, D 1 4 h",68.7
same,Mean DBP,"[1]; SAD 10 mg, D 1 8 h",63.0
same,Mean DBP,"[1]; SAD 10 mg, D 2 24 h",71.7
same,Mean DBP,"[1]; SAD 30 mg, D 1 2 h",66.2
same,Mean DBP,"[1]; SAD 30 mg, D 1 4 h",65.2
same,Mean DBP,"[1]; SAD 30 mg, D 1 8 h",65.2
same,Mean DBP,"[1]; SAD 30 mg, D 2 24 h",71.0
same,Mean DBP,"[1]; SAD 100 mg, D 1 2 h",59.0
same,Mean DBP,"[1]; SAD 100 mg, D 1 4 h",58.7
same,Mean DBP,"[1]; SAD 100 mg, D 1 8 h",56.3
same,Mean DBP,"[1]; SAD 100 mg, D 2 24 h",66.0
same,Mean DBP,"[1]; SAD 150 mg, D 1 2 h",58.2
same,Mean DBP,"[1]; SAD 150 mg, D 1 4 h",56.0
same,Mean DBP,"[1]; SAD 150 mg, D 1 8 h",57.8
same,Mean DBP,"[1]; SAD 150 mg, D 2 24 h",66.2
same,dose-limiting events (in words),"[1]; SAD Cohort A6, 250 mg, sentinel participants",dose-limiting events observed in a sentinel participant
same,effect on SBP and DBP (in words),[1]; SAD cohorts,"decreased SBP and DBP dose dependently, reversibly, and mostly asymptomatically"
same,safety and tolerability (in words),[1]; single and multiple dose oral administration to healthy participants,generally safe and well tolerated
same,BP reduction dose dependence (in words),[2]; Japanese MAD cohorts,no clear Compound A dose-dependent BP reduction trend
same,Maximum of Mean (±SD) Reduction in DBP from Baseline (Baseline),[2]; 30 mg BID (C1),8.8 ± 5.12 mmHg
same,Maximum of Mean (±SD) Reduction in DBP from Baseline (Baseline),[2]; 60 mg BID (C2),8.2 ± 10.40 mmHg
same,Maximum of Mean (±SD) Reduction in DBP from Baseline (Baseline),[2]; 90 mg BID (C2),8.0 ± 8.22 mmHg
